Results published in US20030017186A1, “Carboxylic acid fluorides as pesticides” (priority 1999, published 2003).

Legend:
Assay type in all cases: in vivo
[1] = system: Common furniture beetle (Anobium punctatum); assay: Fumigation test in glass vessel, common furniture beetles; conditions: ANOBPU beetles; Example 5; ACF 50.6/48.2/51.4 g/m^3, SF 47.4/44.6/41 g/m^3 (1st/2nd/3rd fumigation); 23/23/22° C.
From the text: b2) Common furniture beetle (Anobium punctatum)=[…]
(§1) The test organisms, separated by species, were placed into a glass vessel measuring 30 cm×30 cm×60 cm, which was sealed with a glass lid so as to be airtight. The adults and the larvae of the mealworm beetle (Tenebrio molitor) and the broad-horned flour beetle (Gnathocerus cornutus) were placed into small glass vessels approximately 5 cm in diameter, which were closed with a gauze lid and in which they could freely move about. The larvae of the rice weevil had burrowed into seeds of grain. The wood pest larvae were inserted into small blocks of wood measuring 5 cm×2.5 cm×2 cm. The openings were sealed with wads of cotton wool. Only one each of the larvae of the house longhorn beetle (Hylotrupes bajulus) was inserted into a piece of wood, while 6-8 larvae of the common furniture beetle (Anobium punctatum) were inserted into each piece of wood.
(§2) The respective gas was then introduced into the fumigation vessel through a gas line from a gas tank that contained the specified amount of gas. After a defined time period, the fumigation vessel was purged with compressed air. The discharged gas was purified by an attached gas scrubber.
(§3) The beetles were observed until they died. This point was recorded for each species. The larvae of the wood pests as well as the larvae of the rice weevil (Sitophilus oryzae) had to be picked out of the wood or the grain to check their condition. If any of the animals were still alive, the wooden test blocks remaining in the vessel were fumigated again and were reexamined after the corresponding time span had elapsed. The same number of animals in the untreated control was also checked at each point.
(§4) The vitality of the animals was checked at certain time intervals. The beetles could be observed through the fumigation vessel. This was also true for the larvae of the mealworm beetle and the broad-horned flour beetle. The wooden test blocks of the wood pest larvae were opened with hammer and chisel. Tweezers were used to pull the rice weevil larvae out of the grain seeds. The exact time intervals and the number of the evaluated pests were documented in the test results.

[2] = system: Mealworm beetle (Tenebrio molitor); assay: Fumigation test in glass vessel, mealworm beetles; conditions: TENEMO beetles
[3] = system: Mealworm beetle (Tenebrio molitor) larvae; assay: Fumigation test in glass vessel, mealworm beetle larvae; conditions: TENEMO larvae
[4] = system: Broad-horned flour beetle (Gnathocerus cornutus); assay: Fumigation test in glass vessel, broad-horned flour beetles; conditions: GNATCO beetles
wood and storage pests = assay: Fumigation test, wood and storage pests (overall statements)
From the text: as §1, §2, §3, §4

[5] = Example 4, gas 36.5 g/m^3, 19.3° C., 54% rel. air humidity
[6] = Example 5, ACF 50.6/48.2/51.4 g/m^3, SF 47.4/44.6/41 g/m^3 (1st/2nd/3rd fumigation), 23/23/22° C.
[7] = Example 7, ACF 53.0/54.6/0 g/m^3, second gas (SF) 43.6/41.4/39.8 g/m^3 (1st/2nd/3rd fumigation), 20.0/20.2/19.8 C.

SMILES: CC(=O)F [ACF, acetyl fluoride]
- Number alive, 30 min. after Start of Fumigation [1]: 0
- Number dead, 30 min. after Start of Fumigation [1]: 6
- Number alive, 1 hr. after Start of Fumigation [2, 5]: 0
- Number dead, 1 hr. after Start of Fumigation [2, 5]: 10
- Number alive, 30 min. after Start of Fumigation [2, 6]: 0
- Number dead, 30 min. after Start of Fumigation [2, 6]: 10
- Number alive, 30 min. after 1st Fumigation [2, 7]: 0
- Number dead, 30 min. after 1st Fumigation [2, 7]: 10
- Number alive, 1 hr. after Start of Fumigation [3, 5]: 5
- Number alive, 2 hrs. after Start of Fumigation [3, 5]: 0
- Number dead, 1 hr. after Start of Fumigation [3, 5]: 5
- Number dead, 2 hrs. after Start of Fumigation [3, 5]: 10
- Number alive, 30 min. after Start of Fumigation [3, 6]: 0
- Number dead, 30 min. after Start of Fumigation [3, 6]: 10
- Number alive, 30 min. after 1st Fumigation [3, 7]: 5
- Number alive, 1 hr. after 1st Fumigation [3, 7]: 0
- Number dead, 30 min. after 1st Fumigation [3, 7]: 5
- Number dead, 1 hr. after 1st Fumigation [3, 7]: 10
- Number alive, 1 hr. after Start of Fumigation [4, 5]: 13
- Number alive, 2 hrs. after Start of Fumigation [4, 5]: 3
- Number alive, 12 hrs. after Start of Fumigation [4, 5]: 0
- Number dead, 1 hr. after Start of Fumigation [4, 5]: 12
- Number dead, 2 hrs. after Start of Fumigation [4, 5]: 22
- Number dead, 12 hrs. after Start of Fumigation [4, 5]: 25
- Number alive, 30 min. after Start of Fumigation [4, 6]: 0
- Number dead, 30 min. after Start of Fumigation [4, 6]: 15
- Number alive, 30 min. after 1st Fumigation [4, 7]: 0
- Number dead, 30 min. after 1st Fumigation [4, 7]: 15
- Effectiveness against exposed beetles and larvae (wood and storage pests; Conclusion of Examples 1-5): very effective
- Comparison of action on wood and storage pests (wood and storage pests; Example 7, against several of the pest species tested): superior to chlorodifluoroacetyl fluoride
